Reference: US11479551B2, “MTA-cooperative PRMT5 inhibitors” (Mirati Therapeutics, Inc., priority 2019, dated 2022)
Read-outs that look alike come from different tables or passages of the source.

What was measured:
[1] = system: PRMT5-dependent Symmetric Di-methyl Arginine signal in HCT116 homozygous MTAP knockout cells; assay: SYM11 In-Cell Western, HCT116 MTAP knockout; type: cell-based; settings: HCT116 homozygous MTAP knockout cells, 4 days of treatment, SYM11/DRAQ5 ratio, read-out: In-cell-Western (SYM11) HCT116 MTAP_KO IC50
Protocol: (§1) 1. HCT116 MTAP Knockout Model
(§2) HCT116 cells were genetically engineered to knock out the function of both MTAP alleles using a CRISPR/Cas9 system and an sgRNA targeting the MTAP gene. Following Cas9/MTAP sgRNA transduction, clones were screened to confirm that each allele of the MTAP gene had been inactivated (i.e., homozygous MTAP knock out) creating an MTAP-deficient cell.
(§3) Control samples were analyzed in parallel.
Briefly, on Day 0, 2,000 HCT116 parental or HCT116 homozygous MTAP knockout cells were seeded in 96 well plates in McCoy's 5A supplemented with 10% fetal bovine serum and pen/strep and the cells were incubated overnight at 37° C. plus 5% CO2. The following day, cells were treated with DMSO vehicle control or a dose response of PRMT5 inhibitors, and incubated at 37° C. plus 5% CO^2 for four days.
After 4 days of treatment, the cells were fixed by adding 50 μl of 4% paraformaldehyde solution to each well and the cells were incubated for 20 min at room temperature. The paraformaldehyde solution was removed, 150 μl of ice-cold methanol was added and the plate was placed −20° C. for 10 minutes. The methanol was removed, 150 μl of Odyssey Blocking buffer+0.05% Tween20 was added and the plate was incubated at room temperature with shaking for one hour.
The primary SYM11 antibody solution was removed by aspiration and the wells were washed three consecutive times with phosphate buffered saline containing 0.1% Tween-20 (PBST).
The secondary antibody solution was removed by aspiration and the wells were washed three consecutive times with PB ST.
The SYM11 signal and the DRAQ5 signal were quantified using a Li-Cor Odyssey machine reading at […], respectively. The SYM11/DRAQ5 ratio was used to calculate the inhibition of Symmetric Dimethyl Arginine as percent of DMSO control.

[2] = target: PRMT5/MEP50 complex (Homo sapiens (Human), UniProt O14744); assay: PRMT5:MEP50 HotSpot Assay (full-length histone H2A substrate, plus and minus MTA); type: biochemical; settings: in the presence of 2 μM MTA
Protocol: The PRMT5 inhibitory activity of compounds of the present invention was determined using either a PRMT5:MEP50 FlashPlate Assay (Reaction Biology Corporation) or a PRMT5:MEP50 HotSpot Assay (Reaction Biology Corporation).
The assay uses recombinant full-length histone H2A as the PRMT5 substrate. […] The reaction was stopped and transferred to filter paper for detection. The amount of tritiated H2A in each sample was determined using a scintillation counter.

[3] = system: HCT116 homozygous MTAP knockout cells; assay: Proliferation assay (CellTiter-Glo, 10 days of treatment), HCT116 MTAP knockout; type: cell-based; settings: read-out: Proliferation HCT116MTAP_KO IC50
Protocol: as §1, §2, §3
Briefly, on Day 0, 250 HCT116 parental or HCT116 homozygous MTAP knockout cell were seeded in 96 well plates in McCoy's 5A supplemented with 10% fetal bovine serum and pen/strep and the cells were incubated overnight at 37° C. plus 5% CO2.
The following day, cells were treated with DMSO vehicle control or a dose response of PRMT5 inhibitors and incubated at 37 C plus 5% CO2 for five days. On Day 6, the cells were trypsinized and split 1:10 into new 96-well plates with fresh medium containing the same concentration of PRMT5 inhibitor and incubated for an additional 5 days at 37° C. plus 5% CO^2.
On Day 11, the viability of the cells was measured using a CTG assay kit (CellTiter-Glo; Promega cat.no G7573) in accordance with the manufacturer's instructions. The IC50 values for each compound after 10 days of treatment were calculated using GraphPad PRISM software.

Sequence of PRMT5/MEP50 complex (O14744 2-637): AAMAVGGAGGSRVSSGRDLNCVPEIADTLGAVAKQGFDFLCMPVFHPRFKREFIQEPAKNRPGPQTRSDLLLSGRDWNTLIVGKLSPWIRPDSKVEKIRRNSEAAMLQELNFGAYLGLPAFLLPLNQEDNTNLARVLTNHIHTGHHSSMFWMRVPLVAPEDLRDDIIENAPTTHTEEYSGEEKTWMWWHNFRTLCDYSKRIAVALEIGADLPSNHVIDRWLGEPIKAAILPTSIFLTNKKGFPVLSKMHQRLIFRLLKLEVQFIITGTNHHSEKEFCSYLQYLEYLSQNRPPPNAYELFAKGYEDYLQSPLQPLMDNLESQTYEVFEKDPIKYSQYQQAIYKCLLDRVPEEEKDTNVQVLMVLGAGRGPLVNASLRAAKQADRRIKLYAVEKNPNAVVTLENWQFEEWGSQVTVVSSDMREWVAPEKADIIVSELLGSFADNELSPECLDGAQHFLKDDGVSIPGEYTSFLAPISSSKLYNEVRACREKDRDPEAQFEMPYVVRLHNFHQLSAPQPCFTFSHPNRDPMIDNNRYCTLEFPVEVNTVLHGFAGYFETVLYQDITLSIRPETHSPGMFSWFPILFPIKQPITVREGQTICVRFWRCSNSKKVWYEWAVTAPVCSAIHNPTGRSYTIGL
Sequence of PRMT5/MEP50 complex (Q9BQA1 2-342 partner): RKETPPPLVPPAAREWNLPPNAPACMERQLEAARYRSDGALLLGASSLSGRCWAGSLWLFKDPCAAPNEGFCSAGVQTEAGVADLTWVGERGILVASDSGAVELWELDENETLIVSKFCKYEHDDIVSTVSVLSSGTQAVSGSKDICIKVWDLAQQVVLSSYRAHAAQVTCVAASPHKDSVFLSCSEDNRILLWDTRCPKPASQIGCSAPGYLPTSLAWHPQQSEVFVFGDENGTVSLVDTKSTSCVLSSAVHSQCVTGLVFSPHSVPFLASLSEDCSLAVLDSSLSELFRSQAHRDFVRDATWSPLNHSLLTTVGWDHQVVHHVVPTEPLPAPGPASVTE

Row | SMILES | IC50 [1] [nM] | IC50 ([2]; IC50 + 2 μM MTA) [nM] | IC50 [3] [nM] | IC50 ([2]; read-out: IC50 + 2 μM MTA) [nM] | IC50 ([1]; Homo sapiens, HCT-116, 96 h) [nM] | IC50 ([3]; Homo sapiens, HCT-116, 240 h) [nM]
1 | CC(N)c1n[nH]c(=O)c2ccc(-c3cnn(C)c3-c3cccc(Cl)c3C#N)cc12 (single isomer, unassigned) [Example 9-3, 2-[4-[4-(1-aminoethyl)-1-oxo-2H-phthalazin-6-yl]-2-methyl-pyrazol-3-yl]-6-chloro-benzonitrile] | 141 | 1270 | 4820 | – | – | –
2 | Cn1ncc(-c2ccc3c(=O)[nH]nc(CN)c3c2)c1-c1c(C#N)cc2ccccc2c1Cl (single isomer, unassigned) [Example 16-5] | 272 | – | 2850 | 994 | – | –
3 | Cn1ncc(-c2ccc3c(=O)[nH]nc(CN)c3c2)c1-c1c(C#N)cc2ccccc2c1Cl (single isomer, unassigned) [Example 16-6] | 20 | – | 64 | 28 | – | –
4 | Cn1ncc(-c2ccc3c(=O)[nH]nc(CN)c3c2)c1-c1ccc2ccccc2c1Cl [Example 4-181, 4-(aminomethyl)-6-(5-(1-chloronaphthalen-2-yl)-1-methyl-1H-pyrazol-4-yl)phthalazin-1(2H)-one] | – | 401 | – | – | 25 | 450
5 | Cn1ncc(-c2ccc3c(=O)[nH]nc(CN)c3c2)c1CC(C#N)c1ccccc1 (stereo not shown) [Example 4-183, 3-(4-(4-(aminomethyl)-1-oxo-1,2-dihydrophthalazin-6-yl)-1-methyl-1H-pyrazol-5-yl)-2-phenylpropanenitrile] | – | 2770 | – | – | 324 | 897
6 | Cn1ncc(-c2c(-c3ccc4c(=O)[nH]nc(CN)c4c3)cnn2C)c1Cl [Example 4-185, 4-(aminomethyl)-6-(5′-chloro-1′,2-dimethyl-1′H,2H-[3,4′-bipyrazol]-4-yl)phthalazin-1(2H)-one] | – | 1160 | – | – | 167 | 3020
7 | Cn1ncc(-c2c(-c3ccc4c(=O)[nH]nc(CN)c4c3)cnn2C)c1C#N [Example 4-186, 4-(4-(aminomethyl)-1-oxo-1,2-dihydrophthalazin-6-yl)-1′,2-dimethyl-1′H,2H-[3,4′-bipyrazole]-5′-carbonitrile] | – | 2310 | – | – | 5110 | 5780
8 | NCc1n[nH]c(=O)c2ccc(-c3cnc4ccc(-c5ccccc5)nn34)cc12 [Example 4-191, 4-(aminomethyl)-6-(6-phenylimidazo[1,2-b]pyridazin-3-yl)phthalazin-1(2H)-one] | – | 612 | – | – | 911 | 1520
9 | Cn1ncc(-c2ccc3c(=O)[nH]nc(CN)c3c2)c1-c1cccc2c1COC2 [Example 4-220, 4-(aminomethyl)-6-(5-(1,3-dihydroisobenzofuran-4-yl)-1-methyl-1H-pyrazol-4-yl)phthalazin-1(2H)-one] | – | 567 | – | – | 212 | 5160
10 | Cn1ncc(-c2ccc3c(=O)[nH]nc(CN)c3c2)c1-c1cccc2c1COCC2 [Example 4-221, 4-(aminomethyl)-6-(5-(isochroman-8-yl)-1-methyl-1H-pyrazol-4-yl)phthalazin-1(2H)-one] | – | 501 | – | – | 196 | 2380
11 | Cn1ncc(-c2ccc3c(=O)[nH]nc(CN)c3c2)c1-c1cccc2ccncc12 [Example 4-222, 4-(aminomethyl)-6-(5-(isoquinolin-8-yl)-1-methyl-1H-pyrazol-4-yl)phthalazin-1(2H)-one] | – | 255 | – | – | 296 | 5340
12 | Cn1ncc(-c2ccc3c(=O)[nH]nc(CN)c3c2)c1-c1ccc(OC2CC2)c2cncn12 [Example 4-238, 4-(aminomethyl)-6-(5-(8-cyclopropoxyimidazo[1,5-a]pyridin-5-yl)-1-methyl-1H-pyrazol-4-yl)phthalazin-1(2H)-one] | – | 2310 | – | – | 843 | 1940
13 | Cn1ncc(-c2ccc3c(=O)[nH]nc([C@@H](N)C(F)F)c3c2)c1-c1ccc2ccccc2c1C#N [Example 9-7, 2-[4-[4-[(1R)-1-amino-2,2-difluoro-ethyl]-1-oxo-2H-phthalazin-6-yl]-2-methyl-pyrazol-3-yl]naphthalene-1-carbonitrile] | – | 2560 | – | – | > 1000 | > 10000
14 | Cn1ncc(-c2ccc3c(=O)[nH]nc(CN)c3c2)c1-c1ccc(-c2cnsc2)cc1C#N [Example 12-4, 2-[4-[4-(aminomethyl)-1-oxo-2H-phthalazin-6-yl]-2-methyl-pyrazol-3-yl]-5-isothiazol-4-yl-benzonitrile] | – | 176 | – | – | 436 | 4370
15 | Cn1cc(-c2ccc(-c3c(-c4ccc5c(=O)[nH]nc(CN)c5c4)cnn3C)c(C#N)c2)cn1 [Example 12-5, 2-(4-(4-(aminomethyl)-1-oxo-1,2-dihydrophthalazin-6-yl)-1-methyl-1H-pyrazol-5-yl)-5-(1-methyl-1H-pyrazol-4-yl)benzonitrile] | – | 112 | – | – | 456 | 3170
16 | Cn1cc(-c2ccc(C#N)c(-c3c(-c4ccc5c(=O)[nH]nc(CN)c5c4)cnn3C)c2)cn1 [Example 12-6, 2-[4-[4-(aminomethyl)-1-oxo-2H-phthalazin-6-yl]-2-methyl-pyrazol-3-yl]-4-(1-methylpyrazol-4-yl)benzonitrile] | – | 730 | – | – | 380 | 7470
17 | Cn1ncc(-c2ccc3c(=O)[nH]nc(CN)c3c2)c1-c1cc(-c2cnsc2)ccc1C#N [Example 12-7, 2-(4-(4-(aminomethyl)-1-oxo-1,2-dihydrophthalazin-6-yl)-1-methyl-1H-pyrazol-5-yl)-4-(isothiazol-4-yl)benzonitrile] | – | 603 | – | – | 427 | 4980
18 | Cn1ncc(-c2ccc3c(=O)[nH]nc(CN)c3c2)c1-c1cc(C2CCOC2)ccc1C#N (stereo not shown) [Example 12-8, 2-[4-[4-(aminomethyl)-1-oxo-2H-phthalazin-6-yl]-2-methyl-pyrazol-3-yl]-4-THF-3-yl-benzonitrile] | – | 3860 | – | – | 2860 | 7800
19 | Cc1cnc2ccc(-c3c(-c4ccc5c(=O)[nH]nc(CN)c5c4)cnn3C)c(C#N)c2c1 [Example 12-17, 6-[4-[4-(aminomethyl)-1-oxo-2H-phthalazin-6-yl]-2-methyl-pyrazol-3-yl]-3-methyl-quinoline-5-carbonitrile] | – | – | – | – | 10 | 85
20 | Cc1cc(OC2CC2)c(C#N)c(-c2c(-c3ccc4c(=O)[nH]nc(CN)c4c3)cnn2C)c1 [Example 12-18, 2-(4-(4-(aminomethyl)-1-oxo-1,2-dihydrophthalazin-6-yl)-1-methyl-1H-pyrazol-5-yl)-6-cyclopropoxy-4-methylbenzonitrile] | – | – | – | – | 10 | 104
21 | CCOc1cc(-c2cnn(C)c2-c2ccc3ccccc3c2C#N)cc2c(CN)n[nH]c(=O)c12 [Example 13-2, 2-[4-[4-(aminomethyl)-8-ethoxy-1-oxo-2H-phthalazin-6-yl]-2-methyl-pyrazol-3-yl]naphthalene-1-carbonitrile] | – | – | – | – | 64 | 149
22 | CCOc1cc2ccccc2c(C#N)c1-c1c(-c2cc(OCC)c3c(=O)[nH]nc(CN)c3c2)cnn1C [Example 13-3, 2-[4-[4-(aminomethyl)-8-ethoxy-1-oxo-2H-phthalazin-6-yl]-2-methyl-pyrazol-3-yl]-3-ethoxy-naphthalene-1-carbonitrile] | – | – | – | – | 298 | 565
23 | CCc1cc(-c2cnn(C)c2-c2cccc(OC3CC3)c2C#N)cc2c(CN)n[nH]c(=O)c12 [Example 15-2, 2-(4-(4-(aminomethyl)-8-ethyl-1-oxo-1,2-dihydrophthalazin-6-yl)-1-methyl-1H-pyrazol-5-yl)-6-cyclopropoxybenzonitrile] | – | – | – | – | 96 | 211
